The results in this text go back to patent US10723754B2, “2′,4′-bridged nucleosides for HCV infection” (IDENIX PHARMACEUTICALS LLC, priority 2012, dated 2020).

By EC50 is commonly meant the concentration needed to bring the measured effect to its halfway point. By IC50 is commonly meant the concentration needed to halve the response being measured.

For data set [1], the system named is HCV genotype 1b replicon in Huh-7-derived cell line (Zluc). Nature of the data set: HCV replicon assay (luciferase reporter). Type of data set: cell-based. Conditions: Hepatitis C virus, Zluc cells, 72 hours of incubation. The method, then:
Huh-7-derived cell line (Zluc) that harbors an HCV genotype 1b replicon and a luciferase reporter gene was grown in Dulbecco's Modified Eagle Medium (DMEM) supplemented with 10% fetal bovine serum, 2 mM GlutaMAX, 1% MEM nonessential amino acids, 100 IU/mL penicillin, 100 μg/mL streptomycin, and 0.5 mg/mL Geneticin® (G418). For dose response testing the cells were seeded in 96-well plates at 7.5×10^3 cells per well in a volume of 50 μL, and incubated at 37° C./5% CO2. Drug solutions were made up freshly in Huh-7 media as 2× stocks. Ten additional 5-fold dilutions were prepared from these stocks in DMEM without G418. At least three hours after Zluc cells were seeded, drug treatment was initiated by adding 50 μL of drug dilutions to the plates in duplicate. Final concentrations of drug ranged from 100 μM to […]. Cells were then incubated at 37° C./5% CO2. Alternatively, compounds were tested at two concentrations (1 μM and 10 μM). […] For this, media was removed from the plates via gentle tapping. Fifty microliters of ONE-glo luciferase assay reagent was added to each well. The plates were shaken gently for 3 min at room temperature and luminescence was measured on a Victor^3 V 1420 multilabel counter (Perkin Elmer) with a 1 second read time using a 700 nm cut-off filter. The EC50 values were calculated from dose response curves from the resulting best-fit equations determined by Microsoft Excel and XLfit 4.1 software. When screening at two fixed concentrations, the results were expressed as % inhibition at 1 μM and 10 μM.
On the technique in general: A replicon is a self-replicating genome or part of one, used to study replication in cells.

The nature of data set [2]: Cytotoxicity evaluation (CellTiter-Blue Cell Viability Assay). The settings on record: human. A general note: Alamar Blue is a resazurin reagent that responds to reducing activity.
Data set [3] has as its target T1, HCV genotype 1b NS5B protein containing the S282T mutation (Hepatitis C virus genotype 1b, UniProt Q9WMX2, S2701T).
T1 construct: approximately 65 kDa HCV genotype 1b NS5B protein; made in house
Description: HCV polymerase enzyme assay, S282T 1b. Type of data set: biochemical. An excerpt: (§1) Test compounds in the form of nucleoside triphosphates were examined for inhibitory activity against purified HCV polymerase in a standard assay. Bacterial expression constructs encoding the approximately 65 kDa HCV genotype 1b NS5B protein were used to generate recombinant HCV polymerases (with a deletion of the 21 carboxy terminal amino acids). The wild-type genotype 1b protein, genotype 1b protein containing the S282T mutation, wild-type genotype 1a protein, wild-type genotype 2a protein, wild-type genotype 3a protein and wild-type genotype 4a protein were expressed and purified for use in the enzymatic activity assay.
(§2) The enzymatic activity assay measured the inhibitory effect of increasing concentrations of test compound on the incorporation of α-[^33P]-labeled nucleotide into trichloroacetic acid-precipitable material. Recombinant polymerase and synthetic RNA template were combined in reaction buffer containing ribonucleoside triphosphates, α-[^33P]-labeled nucleotide and eight concentrations of test compound in three-fold dilutions. Reactions were incubated for two hours at 30° C.
(§3) Reactions were terminated by the addition of ice-cold trichloroacetic acid and sodium pyrophosphate to promote precipitation of newly-synthesized ribonucleic acid. Precipitable material from the reactions was collected by filtration onto 96-well filter plates, washed extensively with water, and quantified by liquid scintillation.
(§4) The inhibitory activity of test compounds was determined by fitting results to dose-response curves using XLfit software.

The target in data set [4] is T2, HCV wild-type genotype 1b NS5B protein (Hepatitis C virus genotype 1b, UniProt Q9WMX2).
T2 construct: approximately 65 kDa HCV genotype 1b NS5B protein; made in house
Nature of the data set: HCV polymerase enzyme assay, wild-type 1b. Type of data set: biochemical.
Text: as §1, §2, §3, §4

Data set [5] has as its target T3, HCV polymerase wild-type genotype 1a protein (Hepatitis C virus genotype 1a, UniProt P27958).
T3 construct: used to generate recombinant HCV polymerases; made in house
Nature of the data set: HCV polymerase enzyme assay, wild-type 1a. Type of data set: biochemical.
Text: as §1
(§5) The enzymatic activity assay measured the inhibitory effect of increasing concentrations of test compound on the incorporation of α-[^33P]-labeled nucleotide into trichloroacetic acid-precipitable material. […]
as §3, §4

The target in data set [6] is T4, HCV polymerase wild-type genotype 2a protein (Hepatitis C virus genotype 2a, UniProt Q99IB8).
T4 construct: used to generate recombinant HCV polymerases; made in house
Nature of the data set: HCV polymerase enzyme assay, wild-type 2a. The settings on record: purified recombinant polymerase; compounds as nucleoside triphosphates. The format is biochemical.
Text: as §1, §5, §3, §4

In data set [7] the target is T5, HCV polymerase wild-type genotype 3a protein (Hepatitis C virus genotype 3a, UniProt Q81258).
T5 construct: used to generate recombinant HCV polymerases; made in house
Description: HCV polymerase enzyme assay, wild-type 3a. Type of data set: biochemical. Conditions: purified recombinant polymerase; compounds as nucleoside triphosphates.
Text: as §1, §5, §3, §4

Data set [8] has as its target T6, HCV polymerase wild-type genotype 4a protein (Hepatitis C virus genotype 4a, UniProt O39929).
T6 construct: used to generate recombinant HCV polymerases; made in house
Description: HCV polymerase enzyme assay, wild-type 4a. Type of data set: biochemical. The settings on record: purified recombinant polymerase; compounds as nucleoside triphosphates.
Text: as §1, §5, §3, §4

A further data set can be described thus: in vitro. The settings on record: human.
Where [9] appears, read: purified recombinant polymerase, compounds as nucleoside triphosphates, read-out: S282T 1b IC50.

Molecules are shown by their SMILES. Where two headings read alike, the source gives them in different places.

T5 sequence (Q81258 2431-3000): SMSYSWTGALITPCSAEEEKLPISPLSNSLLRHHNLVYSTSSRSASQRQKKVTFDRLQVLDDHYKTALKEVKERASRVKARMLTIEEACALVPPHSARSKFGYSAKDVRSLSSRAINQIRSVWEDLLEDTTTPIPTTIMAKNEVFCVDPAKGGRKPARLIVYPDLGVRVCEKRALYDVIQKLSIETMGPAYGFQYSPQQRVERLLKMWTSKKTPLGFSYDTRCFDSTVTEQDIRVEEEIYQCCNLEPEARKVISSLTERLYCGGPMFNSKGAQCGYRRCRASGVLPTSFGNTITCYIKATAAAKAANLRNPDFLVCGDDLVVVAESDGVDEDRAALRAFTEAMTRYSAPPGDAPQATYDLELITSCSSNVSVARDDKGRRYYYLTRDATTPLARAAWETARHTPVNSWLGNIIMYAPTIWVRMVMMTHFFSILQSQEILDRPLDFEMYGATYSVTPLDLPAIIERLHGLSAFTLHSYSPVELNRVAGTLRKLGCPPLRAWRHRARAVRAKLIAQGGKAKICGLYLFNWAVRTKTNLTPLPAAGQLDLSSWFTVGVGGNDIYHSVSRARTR
T6 sequence (O39929 2418-2987): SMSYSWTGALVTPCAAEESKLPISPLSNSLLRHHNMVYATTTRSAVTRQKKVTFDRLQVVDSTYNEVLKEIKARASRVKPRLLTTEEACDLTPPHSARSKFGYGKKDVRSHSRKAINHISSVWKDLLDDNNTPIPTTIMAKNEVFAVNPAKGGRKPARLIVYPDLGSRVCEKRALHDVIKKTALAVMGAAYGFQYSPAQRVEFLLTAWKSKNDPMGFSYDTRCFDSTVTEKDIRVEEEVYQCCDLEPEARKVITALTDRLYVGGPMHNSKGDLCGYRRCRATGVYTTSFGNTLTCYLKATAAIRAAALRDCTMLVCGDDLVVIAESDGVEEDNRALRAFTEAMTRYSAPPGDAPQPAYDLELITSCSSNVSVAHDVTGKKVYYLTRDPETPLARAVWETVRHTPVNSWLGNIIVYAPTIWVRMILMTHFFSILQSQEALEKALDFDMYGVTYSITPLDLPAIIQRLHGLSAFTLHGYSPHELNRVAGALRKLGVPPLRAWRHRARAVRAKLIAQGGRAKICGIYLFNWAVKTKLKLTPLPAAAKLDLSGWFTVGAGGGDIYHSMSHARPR
T3 sequence (P27958 2421-2990): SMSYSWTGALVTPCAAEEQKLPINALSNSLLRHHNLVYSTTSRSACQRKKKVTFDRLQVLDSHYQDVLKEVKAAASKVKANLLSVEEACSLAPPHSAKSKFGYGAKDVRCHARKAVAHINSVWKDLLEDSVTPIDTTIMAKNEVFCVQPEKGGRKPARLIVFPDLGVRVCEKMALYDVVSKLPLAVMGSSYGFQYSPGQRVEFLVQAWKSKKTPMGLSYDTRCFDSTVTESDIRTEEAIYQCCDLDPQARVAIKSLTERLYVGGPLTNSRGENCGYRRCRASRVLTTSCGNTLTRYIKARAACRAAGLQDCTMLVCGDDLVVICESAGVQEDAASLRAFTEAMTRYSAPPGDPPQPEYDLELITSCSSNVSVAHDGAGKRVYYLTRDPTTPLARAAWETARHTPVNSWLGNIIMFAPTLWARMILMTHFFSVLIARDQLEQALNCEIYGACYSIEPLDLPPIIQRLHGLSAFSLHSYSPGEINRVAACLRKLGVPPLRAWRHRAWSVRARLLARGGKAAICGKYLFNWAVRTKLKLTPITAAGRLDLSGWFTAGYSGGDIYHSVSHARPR

For the compound `[N-]=[N+]=N[C@H]1[C@H]2OC[C@]1(CO)O[C@H]2n1ccc(=O)[nH]c1=O` [Compound 33], the EC50 in [1] was greater than 10 µM. In addition, the CC50 at 72 h in data set [2] was greater than 50 µM.
In the case of `COC(=O)N[C@H]1[C@H]2OC[C@]1(CO)O[C@H]2n1ccc(=O)[nH]c1=O` [Compound 37], the EC50 in data set [1] is greater than 10 µM. Besides, the CC50 at 72 h in data set [2] was greater than 50 µM.
For the compound `CC(OP(=O)(O)OP(=O)(O)OP(=O)(O)O)C12COC(C(n3cnc4c(=O)[nH]c(N)nc43)O1)C2O` (single isomer, unassigned) [Compound 102 Diastereomer 1], the IC50 in [3] (setting [9]) was greater than 10 µM.
Turning to `[N-]=[N+]=N[C@H]1[C@H]2OC[C@]1(COP(=O)(O)OP(=O)(O)OP(=O)(O)O)O[C@H]2n1ccc(=O)[nH]c1=O` [Compound 401], the 50% inhibitory concentration (IC50) in data set [4] was greater than 10 µM.
Still for that read-out and setting: under `N[C@H]1[C@H]2OC[C@]1(COP(=O)(O)OP(=O)(O)OP(=O)(O)O)O[C@H]2n1ccc(=O)[nH]c1=O` [Compound 571] stands greater than 10 µM.
With `C[C@H](OP(=O)(O)OP(=O)(O)OP(=O)(O)O)[C@@]12CO[C@@H]([C@H](n3ccc(=O)[nH]c3=O)O1)[C@@H]2O` [Compound 104a], the IC50 in [3] (setting [9]) and in data set [4] was greater than 10 µM in each case.
As for `CC(=O)N[C@H]1[C@H]2OC[C@]1(CO)O[C@H]2n1ccc(=O)[nH]c1=O` [Compound 35], the EC50 in data set [1] is greater than 10 µM. The CC50 at 72 h in data set [2] is greater than 50 µM.
In data set [4], `Nc1nc2c(ncn2[C@@H]2O[C@@]3(COP(=O)(O)OP(=O)(O)OP(=O)(O)O)CN[C@@H]2[C@@H]3O)c(=O)[nH]1` [Compound 570] came in with an IC50 greater than 10 µM.
On to `CS(=O)(=O)N[C@H]1[C@H]2OC[C@]1(CO)O[C@H]2n1ccc(=O)[nH]c1=O` [Compound 36], for which the half-maximal effective concentration (EC50) in data set [1] was greater than 10 µM. The CC50 at 72 h in [2] was greater than 50 µM.
Compound `C[C@H]1O[C@H]2[C@H](n3cnc4c(=O)[nH]c(N)nc43)O[C@]1(COP(=O)(O)OP(=O)(O)OP(=O)(O)O)[C@H]2O` [Compound 426] returned an IC50 in [4] greater than 10 µM.
`CC(OP(=O)(O)OP(=O)(O)OP(=O)(O)O)C12COC(C(n3cnc4c(=O)[nH]c(N)nc43)O1)C2O` (single isomer, unassigned) [Compound 102 Diastereomer 2]: the IC50 in [3] (setting [9]) and in data set [4] was greater than 10 µM each time.
On to `Nc1ccn([C@@H]2O[C@@]3(COP(=O)(O)OP(=O)(O)OP(=O)(O)O)CO[C@@H]2[C@@H]3O)c(=O)n1` [Compound 107], for which the IC50 in data set [3] (setting [9]) and in data set [4] was 1 to 10 µM each time.
In the case of `C[C@@H](OP(=O)(O)OP(=O)(O)OP(=O)(O)O)[C@@]12CO[C@@H]([C@H](n3ccc(=O)[nH]c3=O)O1)[C@@H]2O` [Compound 104b], the IC50 in data set [3] (setting [9]) and in [4] was greater than 10 µM in each case.
For the compound `O=c1ccn([C@@H]2O[C@@]3(COP(=O)(O)OP(=O)(O)OP(=O)(O)O)CO[C@@H]2[C@@H]3O)c(=O)[nH]1` [Compound 108], the 50% inhibitory concentration (IC50) in data set [3] (setting [9]) was greater than 10 µM; in [4], 1 to 10 µM.
In the case of `Nc1nc2c(ncn2[C@@H]2O[C@@]3(COP(=O)(O)OP(=O)(O)OP(=O)(O)O)CO[C@@H]2[C@@H]3O)c(=O)[nH]1` [Compound 103], the IC50 in data set [3] (setting [9]) was 0.25 to 1 µM; in data set [4], 0.25 to 1 µM; in data set [5], 250 to 1000 nM; in data set [6] it was 250 to 1000 nM; in data set [7], less than 250 nM; in data set [8], 250 to 1000 nM.
On to `CCOc1nc(N)nc2c1ncn2[C@@H]1O[C@@]2(COP(=O)(N[C@@H](C)C(=O)OC(C)C)Oc3ccccc3)CO[C@@H]1[C@@H]2O` (some centres unmarked) [Compound 25], for which the IC50 in data set [3] and in data set [4] was 0.25 to 1 µM throughout.
On to `Nc1ncnc2c1ncn2[C@@H]1O[C@@]2(COP(=O)(O)OP(=O)(O)OP(=O)(O)O)CO[C@@H]1[C@@H]2O` [Compound 101], for which the IC50 in data set [3] (setting [9]) and in data set [4] was greater than 10 µM each time.
`C[C@]12OC[C@](COP(=O)(O)OP(=O)(O)OP(=O)(O)O)(O[C@H]1n1cnc3c(=O)[nH]c(N)nc31)[C@H]2O` [Compound 106]: the IC50 in data set [3] (setting [9]) was 0.25 to 1 µM; in data set [4] it was less than 0.25 µM.
The compound `C[C@H]1O[C@H]2[C@H](n3ccc(=O)[nH]c3=O)O[C@]1(COP(=O)(O)OP(=O)(O)OP(=O)(O)O)[C@H]2O` [Compound 427] showed an IC50 in [4] greater than 10 µM.
On to `Nc1nc2c(ncn2[C@@H]2O[C@@]3(CO)CN[C@@H]2[C@@H]3O)c(=O)[nH]1` [Compound 38], for which the EC50 in data set [1] is greater than 10 µM. Also, in the data set “in vitro”, the CC50 at 72 h was greater than 50 µM.
